Laboratory results published in ChEMBL document CHEMBL1201862, “PubChem BioAssay data set” (2004).
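Dose response: 5 concentrations. Exposure: 48 h. Format: 96-well plates. Endpoint: linear interpolation; highest concentration if not reached. Here, GI50 denotes the concentration required for 50% inhibition of growth.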 Calls of active or inactive are those of the source. No stated cut-off is given here; in the data, active = GI50 up to about 1.1 µM and inactive = higher.

Tests used:
Test in all cases: NCI-60 cell line screen, 48 h
[1] = test system: A498
[2] = test system: A549
[3] = test system: CAKI-1
[4] = test system: CCRF-CEM
[5] = test system: COLO 205
[6] = test system: DLD-1
[7] = test system: DMS-273
[8] = test system: EKVX
[9] = test system: HCT-116
[10] = test system: HCT-15
[11] = test system: HL-60
[12] = test system: HOP-18
[13] = test system: HOP-62
[14] = test system: HOP-92
[15] = test system: HT-29
[16] = test system: IGROV-1
[17] = test system: K562
[18] = test system: KM-20L2
[19] = test system: KM12
[20] = test system: LOX IMVI
[21] = test system: MCF7
[22] = test system: MOLT-4
[23] = test system: Malme-3M
[24] = test system: NCI-H226
[25] = test system: NCI-H23
[26] = test system: NCI-H460
[27] = test system: NCI-H522
[28] = test system: OVCAR-3
[29] = test system: OVCAR-4
[30] = test system: OVCAR-5
[31] = test system: OVCAR-8
[32] = test system: RPMI-8226
[33] = test system: SF-268
[34] = test system: SF-295
[35] = test system: SF-539
[36] = test system: SK-MEL-28
[37] = test system: SK-MEL-2
[38] = test system: SK-MEL-5
[39] = test system: SK-OV-3
[40] = test system: SN12C
[41] = test system: SNB-19
[42] = test system: SNB-75
[43] = test system: SNB-78
[44] = test system: SW-620
[45] = test system: U-251
[46] = test system: UACC-257
[47] = test system: UACC-62
[48] = test system: UO-31
[49] = test system: 786-0
[50] = test system: DMS-114
[51] = test system: HCC 2998
[52] = test system: LXFL 529
[53] = test system: RXF 393

`Cc1n(CC(=O)c2ccc([N+](=O)[O-])cc2)c2c([n+]1CC(C)C)C(=O)c1ccccc1C2=O` was tested, and the GI50 [1] was 0.668 µM (active), the GI50 [2] was < 0.0318 µM (active) and the GI50 [3] was 0.121 µM (active). For the same compound, the GI50 [4] was < 0.0172 µM (active), the GI50 [5] was < 0.01 µM (active) and the GI50 [6] was < 0.0394 µM (active). For the same compound, the GI50 [7] was < 0.01 µM (active), the GI50 [8] was < 0.0109 µM (active) and the GI50 [9] was < 0.02 µM (active). The GI50 [10] was 2.88 µM, the GI50 [11] was < 0.01 µM (active) and the GI50 [12] was < 0.0184 µM (active). The GI50 [13] was 0.29 µM (active), the GI50 [14] was < 0.0226 µM (active) and the GI50 [15] was < 0.0131 µM (active). The GI50 [16] was < 0.01 µM (active), the GI50 [17] was < 0.01 µM (active) and the GI50 [18] was < 0.01 µM (active). For the same compound, the GI50 [19] was < 0.0211 µM (active), the GI50 [20] was < 0.01 µM (active) and the GI50 [21] was < 0.01 µM (active). The GI50 [22] was < 0.0204 µM (active), the GI50 [23] was < 0.01 µM (active) and the GI50 [24] was < 0.0111 µM (active). The GI50 [25] was < 0.01 µM (active), the GI50 [26] was < 0.04 µM (active) and the GI50 [27] was < 0.01 µM (active). The GI50 [28] was < 0.0424 µM (active), the GI50 [29] was < 0.0178 µM (active) and the GI50 [30] was < 0.0318 µM (active). For the same compound, the GI50 [31] was < 0.01 µM (active), the GI50 [32] was < 0.01 µM (active) and the GI50 [33] was < 0.01 µM (active). The GI50 [34] was 0.329 µM (active), the GI50 [35] was < 0.01 µM (active) and the GI50 [36] was 0.0411 µM (active). The GI50 [37] was < 0.0123 µM (active), the GI50 [38] was < 0.0106 µM (active) and the GI50 [39] was 0.361 µM (active). The GI50 [40] was < 0.01 µM (active), the GI50 [41] was < 0.015 µM (active) and the GI50 [42] was < 0.0356 µM (active). For the same compound, the GI50 [43] was < 0.0137 µM (active), the GI50 [44] was < 0.01 µM (active) and the GI50 [45] was < 0.01 µM (active). For the same compound, the GI50 [46] was < 0.01 µM (active), the GI50 [47] was < 0.0334 µM (active) and the GI50 [48] was 16.1 µM (inactive).
With `COc1ccc(/C=N/N=C(\N)NO)cc1O` the GI50 [49] was 18.5 µM (inactive), the GI50 [2] was 27.6 µM (inactive) and the GI50 [3] was 48.2 µM (inactive). For the same compound, the GI50 [4] was > 100 µM (inactive), the GI50 [5] was 25.8 µM (inactive) and the GI50 [6] was 33.8 µM (inactive). The GI50 [50] was 30.2 µM (inactive), the GI50 [8] was 29.3 µM (inactive) and the GI50 [51] was 17.5 µM (inactive). For the same compound, the GI50 [9] was 37.5 µM (inactive), the GI50 [10] was 42.9 µM and the GI50 [12] was > 100 µM (inactive). For the same compound, the GI50 [14] was 20.6 µM (inactive), the GI50 [15] was 40.9 µM (inactive) and the GI50 [16] was 84.1 µM (inactive). For the same compound, the GI50 [17] was 82.8 µM (inactive), the GI50 [19] was 45.8 µM (inactive) and the GI50 [20] was 26.7 µM (inactive). For the same compound, the GI50 [52] was > 100 µM (inactive), the GI50 [22] was > 100 µM (inactive) and the GI50 [23] was 16.6 µM (inactive). The GI50 [24] was 33.4 µM (inactive), the GI50 [25] was 31.9 µM (inactive) and the GI50 [26] was 25.5 µM (inactive). For the same compound, the GI50 [27] was > 10 µM (inactive), the GI50 [29] was 45.4 µM (inactive) and the GI50 [30] was > 100 µM (inactive). For the same compound, the GI50 [32] was > 100 µM (inactive), the GI50 [53] was 41.7 µM (inactive) and the GI50 [33] was 32 µM (inactive). For the same compound, the GI50 [35] was 31.2 µM (inactive), the GI50 [36] was 49.8 µM (inactive) and the GI50 [37] was 76.4 µM (inactive). For the same compound, the GI50 [38] was 31.9 µM (inactive), the GI50 [39] was 80.2 µM (inactive) and the GI50 [40] was 30.9 µM (inactive). The GI50 [41] was > 100 µM (inactive), the GI50 [43] was > 100 µM (inactive) and the GI50 [44] was 44.7 µM (inactive). The GI50 [45] was 62.5 µM (inactive), the GI50 [47] was 31.1 µM (inactive) and the GI50 [48] was 45 µM (inactive).
